Measured values as given in US20220370453A1 (Storm Therapeutics Ltd, priority 2019, published 2022).

Columns and labels:
BCDIN3D [1] = biological target: T1, BCDIN3D (Homo sapiens, UniProt Q7Z5W3); assay: BCDIN3D IC50 RFMS (RapidFire) assay with mini-helix; assay type: biochemical; conditions: mini-helix 0.2 μM and SAM 6 μM as substrates, 25 nM enzyme, 1 hr at 37° C.
T1 sequence (Q7Z5W3 1-292): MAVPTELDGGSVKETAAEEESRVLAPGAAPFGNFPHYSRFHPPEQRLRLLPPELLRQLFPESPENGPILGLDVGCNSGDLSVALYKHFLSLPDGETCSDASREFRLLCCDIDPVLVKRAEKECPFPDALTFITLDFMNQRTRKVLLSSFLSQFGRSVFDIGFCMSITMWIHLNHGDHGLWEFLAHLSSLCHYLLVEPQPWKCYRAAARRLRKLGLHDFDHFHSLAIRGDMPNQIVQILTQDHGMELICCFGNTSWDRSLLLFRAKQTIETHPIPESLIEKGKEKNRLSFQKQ
Experimental: The following General Methods details the assay conditions for the Biological assays.
BCDIN3D IC50 RFMS Assay with Mini-Helix
The enzymatic assay was performed in a 384-well polypropylene plate in assay buffer with 25 mM Tris pH 8.0, 10 mM DTT, 1 mM EDTA, 0.03% BSA in a final assay volume of 20 μL. The enzyme with a final concentration of 25 nM was pre-incubated with the respective compound at 1% DMSO final assay concentration over 10 min at room temperature. The reaction was initiated by addition of 0.2 μM final assay concentration of mini-helix and 6 μM final concentration of SAM as substrates. After a 1 hr incubation at 37° C., the reaction was terminated with 40 μL of stop solution of 7.5% trichloroactetic acid in water containing 112.5 nM D4-SAH and 30 nM ^13C10-SAH used as internal standards. The SAH product concentrations as well as both internal standards were analyzed by a RapidFire High Throughput Mass Spectrometry System (Agilent Technologies, Santa Clara, Calif.) using an AP14000 triple quadrupole mass spectrometer (AB Sciex Framingham, Mass.).

BCDIN3D [2] = biological target: T1, BCDIN3D; assay: BCDIN3D InCellPulse thermal stability assay in transfected A549 cells; assay type: cell-based; conditions: A549 cells transiently transfected with ePL-BCDIN3D, 1 h pre-incubation, heat shock 58° C. 15 min
Experimental: BCDIN3D InCellPulse™ Assay
The thermal stability assay was performed with lipofectamine 3000 transiently transfected A549 using the plasmid pICP-ePL-BCDIN3 Da. This plasmid encodes for BCDIN3D N-terminally fused to a Prolabel (ePL), complementing a split β-Galactosidase Enzyme System InCELL Pulse Technology (InCELL Hunter Detection Kit, DiscoverX/Eurofins, cat: 96-0079L). 20 μl A549 cells (1500 cell/well) were added with a multidrop device to compounds to a final DMSO concentration of 0.6% in 384-well polypropylene plate format in IMDM medium and pre-incubated with the compounds for 1 h at 37° C. and 5% CO2. Subsequently, a heat shock was applied to the entire sealed plate in a 58° C. water bath for 15 min. The plates were cooled to RT, spun down and 25 μl/well of EA Detection Solution at 3.3× (InCELL Hunter Detection Kit) was added per well. 21 μl of the mixture was added to a black 384-well measurement plate (Corning, PS, black, Flat Bottom, #3575), mix for 30 minutes on a plate shaker at RT. Finally, the luminescence was measured with a Perkin Elmer EnVision with 0.2 s measurement time in luminescence mode.

Row | Structure (SMILES) | IC50 (BCDIN3D [1]) [µM] | IC50 (BCDIN3D [2]) [µM]
1 | Cn1ncc2c(Nc3ccc(C(F)(F)F)cc3)nc(NCCN)nc21 [Compound 1.01, N6-(2-Aminoethyl)-1-methyl-N4-[4-(trifluoromethyl)phenyl]pyrazolo[3,4-d]pyrimidine-4,6-diamine] | 1.98 | 3.33
2 | Cn1ncc2c(Nc3ccc(Oc4ccccc4)cc3)nc(NCCN)nc21 [Compound 1.03, N6-(2-aminoethyl)-1-methyl-N4-(4-phenoxyphenyl)-1H-pyrazolo[3,4-d]pyrimidine-4,6-diamine] | 0.975 | 0.918
3 | Cn1ncc2c(Nc3cccc(Oc4ccccc4)c3)nc(NCCN)nc21 [Compound 1.04, N6-(2-aminoethyl)-1-methyl-N4-(3-phenoxyphenyl)-1H-pyrazolo[3,4-d]pyrimidine-4,6-diamine] | 1.26 | 1.53
4 | Cn1ncc2c(NCc3ccc(-c4ccccc4)cc3)nc(NCCN)nc21 [Compound 1.05, N6-(2-aminoethyl)-1-methyl-N4-[(4-phenylphenyl)methyl]pyrazolo[3,4-d]pyrimidine-4,6-diamine] | 2.21 | 2.97
5 | COc1ccc(C(C)Nc2nc(NCCN)nc3c2cnn3C)cc1Cl (centres unmarked) [Compound 1.06, N6-(2-aminoethyl)-N4-[1-(3-chloro-4-methoxyphenyl)ethyl]-1-methyl-1H-pyrazolo[3,4-d]pyrimidine-4,6-diamine] | 1.68 | 2.93
6 | COc1cccc(-c2cccc(Nc3nc(NCCN)nc4c3cnn4C)c2)c1 [Compound 1.11, N6-(2-aminoethyl)-N4-{3′-methoxy-[1,1′-biphenyl]-3-yl}-1-methyl-1H-pyrazolo[3,4-d]pyrimidine-4,6-diamine] | 0.762 | 1.06
7 | COc1cccc(-c2ccc(Nc3nc(NCCN)nc4c3cnn4C)cc2)c1 [Compound 1.14, N6-(2-aminoethyl)-N4-{3′-methoxy-[1,1′-biphenyl]-4-yl}-1-methyl-1H-pyrazolo[3,4-d]pyrimidine-4,6-diamine] | 0.568 | 0.754
8 | COc1ccc(-c2cccc(Nc3nc(NCCN)nc4c3cnn4C)c2)cc1 [Compound 1.15, N6-(2-aminoethyl)-N4-{4′-methoxy-[1,1′-biphenyl]-3-yl}-1-methyl-1H-pyrazolo[3,4-d]pyrimidine-4,6-diamine] | 0.541 | 1.02
9 | Cn1ncc2c(Nc3cccc(-c4ccccc4)c3)nc(NCCN)nc21 [Compound 1.16, N6-(2-aminoethyl)-N4-{[1,1′-biphenyl]-3-yl}-1-methyl-1H-pyrazolo[3,4-d]pyrimidine-4,6-diamine] | 0.744 | 1.7
10 | COc1ccc(Nc2nc(NCCN)nc3c2cnn3C)cc1Cl [Compound 1.21, N6-(2-aminoethyl)-N4-(3-chloro-4-methoxyphenyl)-1-methyl-1H-pyrazolo[3,4-d]pyrimidine-4,6-diamine] | 1.15 | 8.07
11 | Cn1ncc2c(NCc3cccc(C(F)(F)F)c3)nc(NCCN)nc21 [Compound 1.23, N6-(2-aminoethyl)-1-methyl-N4-{[3-(trifluoromethyl)phenyl]methyl}-1H-pyrazolo[3,4-d]pyrimidine-4,6-diamine] | 7.72 | 8.47
12 | COc1ccc(CNc2nc(NCCN)nc3c2cnn3C)c(OC)c1 [Compound 1.24, N6-(2-aminoethyl)-N4-[(2,4-dimethoxyphenyl)methyl]-1-methyl-1H-pyrazolo[3,4-d]pyrimidine-4,6-diamine] | 2.25 | 10.6
13 | COc1ccc(CNc2nc(NCCN)nc3c2cnn3C)cc1Cl [Compound 1.25, N6-(2-aminoethyl)-N4-[(3-chloro-4-methoxyphenyl)methyl]-1methyl-1H-pyrazolo[3,4-d]pyrimidine-4,6-diamine] | 1.66 | 7.72
14 | COc1ccc(CNc2nc(NCC(C)(C)N)nc3c2cnn3C)cc1Cl [Compound 1.26, N6-(2-amino-2-methylpropyl)-N4-[(3-chloro-4-methoxyphenyl)methyl]-1-methyl-1H-pyrazolo[3,4-d]pyrimidine-4,6-diamine] | 0.744 | 1.87
15 | COc1ccc(CNc2nc(NCC(C)(C)N)nc3c2cnn3C)cc1 [Compound 1.27, N6-(2-amino-2-methylpropyl)-N4-[(4-methoxyphenyl)methyl]-1-methyl-1H-pyrazolo[3,4-d]pyrimidine-4,6-diamine] | 2.88 | 5.34
16 | Cn1ncc2c(NCc3ccc(-c4ccccc4)cc3)nc(NCC(C)(C)N)nc21 [Compound 1.28, N6-(2-amino-2-methylpropyl)-N4-({[1,1′-biphenyl]-4-yl}methyl)-1-methyl-1H-pyrazolo[3,4-d]pyrimidine-4,6-diamine] | 1.11 | 0.765
17 | COc1ccc(CNc2nc(NCC(C)(C)N)nc3c2c(C)nn3C)cc1Cl [Compound 1.30, N6-(2-amino-2-methylpropyl)-N4-[(3-chloro-4-methoxyphenyl)methyl]-1,3-dimethyl-1H-pyrazolo[3,4-d]pyrimidine-4,6-diamine] | 1.85 | 3.79
18 | Cc1nn(C)c2nc(NCC(C)(C)N)nc(NCc3ccc(-c4ccccc4)cc3)c12 [Compound 1.31, N6-(2-amino-2-methylpropyl)-N4-({[1,1′-biphenyl]-4-yl}methyl)-1,3-dimethyl-1H-pyrazolo[3,4-d]pyrimidine-4,6-diamine] | 0.95 | 0.814

The next lines start with the values.

Row | IC50 (BCDIN3D [1]) [µM] | IC50 (BCDIN3D [2]) [µM] | Structure (SMILES)
19 | 7.65 | 10.8 | CNc1nc(NC[C@@](C)(N)c2ccccc2)nc2c1cnn2C (single isomer, unassigned) [Compound 7.10]
20 | 2.62 | 6 | Cn1ncc2c(Nc3ccc(C(F)(F)F)nc3)nc(NC[C@](C)(N)c3ccccc3)nc21 (single isomer, unassigned) [Compound 7.13]
21 | 0.0381 | 0.133 | Cn1ncc2c(Nc3ccc(C(F)(F)F)nc3)nc(NCC(C)(N)c3ccccc3)nc21 (single isomer, unassigned) [Compound 7.15]
22 | 0.981 | 2.14 | [2H]C([2H])([2H])n1ncc2c(NC(C)(C)C)nc(NCC(N)c3ccccc3F)nc21 (stereo in doubt) [Compound 7.17, N6-[(2S)-2-amino-2-(2-fluorophenyl)ethyl]-N4-tert-butyl-1-(trideuteriomethyl)pyrazolo[3,4-d]pyrimidine-4,6-diamine]
23 | 8.58 | – | Cc1ccc(CNc2nc(N[C@@H]3CCCC[C@H]3N)nc3c2cnn3C)cc1Cl [Compound 7.03, 6-N-[(1R,2R)-2-aminocyclohexyl]-4-N-[(3-chloro-4-methylphenyl)methyl]-1-methylpyrazolo[3,4-d]pyrimidine-4,6-diamine]
24 | – | 2.15 | Cn1ncc2c(NC(C)(C)C)nc(NC[C@H](N)c3ccccc3F)nc21 [Compound 7.12, N6-[(2R)-2-amino-2-(2-fluorophenyl)ethyl]-N4-tert-butyl-1-methyl-pyrazolo[3,4-d]pyrimidine-4,6-diamine]
25 | 0.8 | – | Cn1ncc2c(NC(C)(C)C)nc(NC[C@H](N)c3ccc(F)c(F)c3)nc21 [Compound 7.20, N6-[(2R)-2-amino-2-(3,4-difluorophenyl)ethyl]-N4-tert-butyl-1-methyl-1H-pyrazolo[3,4-d]pyrimidine-4,6-diamine]
26 | 0.00462 | – | Cn1ncc2c(NC(C)(C)C)nc(NC[C@@H](N)c3ccc(F)c(F)c3)nc21 [Compound 7.21, N6-[(2S)-2-amino-2-(3,4-difluorophenyl)ethyl]-N4-tert-butyl-1-methyl-1H-pyrazolo[3,4-d]pyrimidine-4,6-diamine]
27 | 0.8 | – | Cn1ncc2c(NC(C)(C)C)nc(NC[C@H](N)C3CCCCC3)nc21 [Compound 7.22, N6-[(2R)-2-amino-2-cyclohexylethyl]-N4-tert-butyl-1-methyl-1H-pyrazolo[3,4-d]pyrimidine-4,6-diamine]
28 | 5.17 | – | Cn1ncc2c(NC(C)(C)C)nc(NC[C@@H](N)C3CCCCC3)nc21 [Compound 7.23, N6-[(2S)-2-amino-2-cyclohexylethyl]-N4-tert-butyl-1-methyl-1H-pyrazolo[3,4-d]pyrimidine-4,6-diamine]
